Measurements published in ChEMBL document CHEMBL4152250, “Antibacterial and anti-TB tat-peptidomimetics with improved efficacy and half-life” (Eur J Med Chem, 2018).
Converted amounts (≈) assume the structure as drawn. Numbered stars: 1 amine (or outer) side, 2 acyl side, 3 side chain; on linkers, the order of the positions; unused ones are H or OH. Square brackets hold non-standard residues; d marks the D form. Peptide text beside a SMILES is read from it. Pro(N-(CH2)3Gua,cis-4-NH-) = N=C(N)NCCCN1C[C@@H](N[*:1])C[C@H]1C(=O)[*:2]; Pro(cis-4-guanidino) = NC(N)=N[C@@H]1CN[C@H](C(=O)O)C1; X1 = NCCCN1C[C@@H](N[*:1])C[C@H]1C(=O)[*:2]; Ethylenediamine = C(CN[*:2])N[*:1]; βAla = NCCC(=O)O

Key:
[1] = system: Mycobacterium tuberculosis; test: Antitubercular activity against multidrug-resistant dormant stage of Mycobacterium tuberculosis H37Ra after 12 days by XRMA; format: functional, organism-based; settings: 288 h
[2] = system: Mycobacterium tuberculosis; test: Antitubercular activity against multidrug-resistant active stage of Mycobacterium tuberculosis H37Ra after 8 days by XRMA; format: functional, organism-based; settings: 192 h

Structure (SMILES)	IC50 [1] [nM]	MIC [1] [µM]	IC50 [2] [nM]	MIC [2] [µM]
CC(=O)N[C@@H](Cc1ccccc1)C(=O)NCC(=O)N[C@@H](CCCNC(=N)N)C(=O)N[C@@H](CCCCN)C(=O)N[C@@H](CCCCN)C(=O)N[C@H]1C[C@@H](C(=O)N[C@@H](CCCNC(=N)N)C(=O)N[C@@H](CCC(N)=O)C(=O)N[C@@H](CCCNC(=N)N)C(=O)N[C@@H](CCCNC(=N)N)C(=O)N[C@@H](CCCNC(=N)N)C(=O)NCCC(N)=O)N(CCCNC(=N)N)C1 (Ac-FGRKK[Pro(N-(CH2)3Gua,cis-4-NH-)]RQRRR[βAla]-NH2)	1100	10.6 (≈ 18.1 µg/mL)	2000	13 (≈ 22.2 µg/mL)
NC(=O)c1cnccn1 [PYRAZINAMIDE]	–	> 100	–	> 100
CC(=O)N[C@@H](Cc1ccccc1)C(=O)NCC(=O)N[C@H]1C[C@@H](C(=O)N[C@@H](CCCCN)C(=O)N[C@@H](CCCCN)C(=O)N[C@@H](CCCNC(=N)N)C(=O)N[C@H]2C[C@@H](C(=O)N[C@@H](CCC(N)=O)C(=O)N[C@H]3C[C@@H](C(=O)N[C@@H](CCCNC(=N)N)C(=O)N[C@H]4C[C@@H](C(=O)NCCN)N(CCCN)C4)N(CCCN)C3)N(CCCN)C2)N(CCCN)C1 (Ac-FG[X1]KKR[X1]Q[X1]R[X1]-Ethylenediamine)	1080	6.6 (≈ 11.1 µg/mL)	2800	12 (≈ 20.2 µg/mL)
CC(=O)N[C@@H](Cc1ccccc1)C(=O)NCC(=O)N[C@@H](CCCNC(=N)N)C(=O)N[C@@H](CCCCN)C(=O)N[C@@H](CCCCN)C(=O)N[C@@H](CCCNC(=N)N)C(=O)N[C@@H](CCCNC(=N)N)C(=O)N[C@@H](CCC(N)=O)C(=O)N[C@@H](CCCNC(=N)N)C(=O)N[C@@H](CCCNC(=N)N)C(=O)N[C@H]1C[C@@H](C(=O)NCCC(N)=O)N(CCCNC(=N)N)C1 (Ac-FGRKKRRQRR[Pro(N-(CH2)3Gua,cis-4-NH-)][βAla]-NH2)	1280	12 (≈ 20.5 µg/mL)	1850	22.1 (≈ 37.8 µg/mL)
CO[C@H]1/C=C/O[C@@]2(C)Oc3c(C)c(O)c4c(O)c(c(/C=N/N5CCN(C)CC5)c(O)c4c3C2=O)NC(=O)/C(C)=C\C=C\[C@H](C)[C@H](O)[C@@H](C)[C@@H](O)[C@@H](C)[C@H](OC(C)=O)[C@@H]1C [RIFAMPIN]	–	> 12.1	–	> 12.1
CC(=O)N[C@@H](Cc1ccccc1)C(=O)NCC(=O)N[C@@H](CCCNC(=N)N)C(=O)N[C@@H](CCCCN)C(=O)N[C@@H](CCCCN)C(=O)N[C@@H](CCCNC(=N)N)C(=O)N[C@@H](CCCNC(=N)N)C(=O)N[C@@H](CCC(N)=O)C(=O)N[C@@H](CCCNC(=N)N)C(=O)N[C@@H](CCCNC(=N)N)C(=O)N1C[C@@H](NC(=N)N)C[C@H]1C(=O)NCCC(N)=O (Ac-FGRKKRRQRR[Pro(cis-4-guanidino)][βAla]-NH2)	3100	12.9 (≈ 21.3 µg/mL)	3100	22.5 (≈ 37.2 µg/mL)
CC(=O)N[C@@H](Cc1ccccc1)C(=O)NCC(=O)N[C@@H](CCCNC(=N)N)C(=O)N[C@@H](CCCCN)C(=O)N[C@@H](CCCCN)C(=O)N[C@@H](CCCNC(=N)N)C(=O)N[C@@H](CCCNC(=N)N)C(=O)N[C@@H](CCC(N)=O)C(=O)N[C@@H](CCCNC(=N)N)C(=O)N[C@@H](CCCNC(=N)N)C(=O)N[C@@H](CCCNC(=N)N)C(N)=O	19200	–	> 60000	–
CC(=O)N[C@@H](Cc1ccccc1)C(=O)NCC(=O)N[C@H]1C[C@@H](C(=O)N[C@@H](CCCCN)C(=O)N[C@@H](CCCCN)C(=O)N[C@@H](CCCNC(=N)N)C(=O)N[C@H]2C[C@@H](C(=O)N[C@@H](CCC(N)=O)C(=O)N[C@@H](CCCNC(=N)N)C(=O)N[C@@H](CCCNC(=N)N)C(=O)N[C@H]3C[C@@H](C(=O)NCCC(N)=O)N(CCCN)C3)N(CCCN)C2)N(CCCN)C1 (Ac-FG[X1]KKR[X1]QRR[X1][βAla]-NH2)	1460	14 (≈ 23.7 µg/mL)	2600	23.5 (≈ 39.8 µg/mL)
CC(=O)N[C@@H](Cc1ccccc1)C(=O)NCC(=O)N[C@H]1C[C@@H](C(=O)N[C@@H](CCCCN)C(=O)N[C@@H](CCCCN)C(=O)N[C@@H](CCCNC(=N)N)C(=O)N[C@H]2C[C@@H](C(=O)N[C@@H](CCC(N)=O)C(=O)N[C@@H](CCCNC(=N)N)C(=O)N[C@@H](CCCNC(=N)N)C(=O)N[C@H]3C[C@@H](C(=O)NCCC(N)=O)N(CCCNC(=N)N)C3)N(CCCNC(=N)N)C2)N(CCCNC(=N)N)C1 (Ac-FG[Pro(N-(CH2)3Gua,cis-4-NH-)]KKR[Pro(N-(CH2)3Gua,cis-4-NH-)]QRR[Pro(N-(CH2)3Gua,cis-4-NH-)][βAla]-NH2)	670	10.4 (≈ 18.9 µg/mL)	6400	25.3 (≈ 46.1 µg/mL)
CC(=O)N[C@@H](Cc1ccccc1)C(=O)NCC(=O)N[C@@H](CCCNC(=N)N)C(=O)N[C@@H](CCCCN)C(=O)N[C@@H](CCCCN)C(=O)N1C[C@@H](NC(=N)N)C[C@H]1C(=O)N[C@@H](CCCNC(=N)N)C(=O)N[C@@H](CCC(N)=O)C(=O)N[C@@H](CCCNC(=N)N)C(=O)N[C@@H](CCCNC(=N)N)C(=O)N[C@@H](CCCNC(=N)N)C(=O)NCCC(N)=O (Ac-FGRKK[Pro(cis-4-guanidino)]RQRRR[βAla]-NH2)	3270	14.5 (≈ 24 µg/mL)	2680	15.1 (≈ 25 µg/mL)
CC(=O)N[C@@H](Cc1ccccc1)C(=O)NCC(=O)N1C[C@@H](NC(=N)N)C[C@H]1C(=O)N[C@@H](CCCCN)C(=O)N[C@@H](CCCCN)C(=O)N[C@@H](CCCNC(=N)N)C(=O)N1C[C@@H](NC(=N)N)C[C@H]1C(=O)N[C@@H](CCC(N)=O)C(=O)N1C[C@@H](NC(=N)N)C[C@H]1C(=O)N[C@@H](CCCNC(=N)N)C(=O)N1C[C@@H](NC(=N)N)C[C@H]1C(=O)NCCC(N)=O (Ac-FG[Pro(cis-4-guanidino)]KKR[Pro(cis-4-guanidino)]Q[Pro(cis-4-guanidino)]R[Pro(cis-4-guanidino)][βAla]-NH2)	1900	21.5 (≈ 35.4 µg/mL)	10800	26.4 (≈ 43.5 µg/mL)
CC(=O)N[C@@H](Cc1ccccc1)C(=O)NCC(=O)N[C@H]1C[C@@H](C(=O)N[C@@H](CCCCN)C(=O)N[C@@H](CCCCN)C(=O)N[C@@H](CCCNC(=N)N)C(=O)N[C@H]2C[C@@H](C(=O)N[C@@H](CCC(N)=O)C(=O)N[C@H]3C[C@@H](C(=O)N[C@@H](CCCNC(=N)N)C(=O)N[C@H]4C[C@@H](C(=O)NCCC(N)=O)N(CCCNC(=N)N)C4)N(CCCNC(=N)N)C3)N(CCCNC(=N)N)C2)N(CCCNC(=N)N)C1	2360	11.7 (≈ 22 µg/mL)	3100	24.6 (≈ 46.2 µg/mL)
CC(=O)N[C@@H](Cc1ccccc1)C(=O)NCC(=O)N1C[C@@H](NC(=N)N)C[C@H]1C(=O)N[C@@H](CCCCN)C(=O)N[C@@H](CCCCN)C(=O)N[C@@H](CCCNC(=N)N)C(=O)N1C[C@@H](NC(=N)N)C[C@H]1C(=O)N[C@@H](CCC(N)=O)C(=O)N[C@@H](CCCNC(=N)N)C(=O)N[C@@H](CCCNC(=N)N)C(=O)N1C[C@@H](NC(=N)N)C[C@H]1C(=O)NCCC(N)=O (Ac-FG[Pro(cis-4-guanidino)]KKR[Pro(cis-4-guanidino)]QRR[Pro(cis-4-guanidino)][βAla]-NH2)	500	6 (≈ 9.9 µg/mL)	1320	15 (≈ 24.7 µg/mL)
